Test results from patent publication US11198704B2, “Butane-tetraol-based amphiphiles and uses thereof” (Industry-University Cooperation Foundation Hanyang …, priority 2016, dated 2021).

Tests used:
[1] = Critical micelle concentration (CMC) using diphenylhexatriene (DPH) fluorescent stain; type: physicochemical; conditions: aqueous solution
Method: A method of measuring the CMC is not particularly limited, but the CMC may be measured using methods well known in the related art. For example, the CMC may be measured by a fluorescence staining method using diphenylhexatriene (DPH).
(§1) Specifically, the critical micelle concentration (CMC) was measured using diphenylhexatriene (DPH) as a fluorescent stain, and the hydrodynamic radii (Rh) of the micelles formed by each preparation (1.0% by weight) were measured through a dynamic light scattering (DLS) experiment.

[2] = target: T1, human β2 adrenergic receptor (β2AR) (Homo sapiens, UniProt P07550); experiment: Structural stability of β2AR, [3H]-dihydroalprenolol ([3H]-DHA) binding; type: biochemical; conditions: BTMs without CHS, DDM with CHS
T1 construct: made in house
Method: An experiment for determining the structural stability of a human β2 adrenergic receptor (β2AR) and a G-protein-coupled receptor (GPCR) by BTMs was performed. That is, a receptor purified with DDM was diluted with a buffer solution containing only each of the BTMs without cholesteryl hemisuccinate (CHS) or a buffer solution containing DDM with CHS. The final compound concentration was CMC+0.2% by weight, and the ligand-binding characteristics of the receptor were determined through [^3H]-dihydroalprenolol ([^3H]-DHA) binding.
Specifically, a radioactive ligand binding test was performed using the following method. β2AR was purified with 0.1% DDM (D. M. Rosenbaum et al., Science, 2007, 318, 1266-1273.), and finally concentrated to approximately 10 mg/mL (approximately 200 μM). A master binding mixture containing 10 nM [^3H]-dihydroalprenolol (DHA) supplemented with 0.5 mg/mL BSA in each 0.2% amphiphilic compound (DDM or BTMs) was prepared using the β2AR purified with DDM. The ligand-binding characteristics of the receptor purified with the amphiphilic compound at 0.2 pmol was monitored at regular intervals while the receptor was incubated at room temperature for 3 days. The ligand-binding characteristics of the receptor were determined using a water-soluble radioactive ligand binding assay as will be described below. The receptor purified with DDM or each of the BTMs was incubated with 10 nM [^3H]-DHA at room temperature for 30 minutes. The mixture was loaded on a G-50 column, and flow-through fractions were collected using 1 mL of a binding buffer (20 mM HEPES (pH 7.5) supplemented with 0.5 mg/mL BSA and 20×CMC of each amphiphilic compound, 100 mM NaCl). Then, the G-50 column was filled with 15 mL of a scintillation fluid. Receptor-bound [^3H]-DHA was counted using a scintillation counter (Beckman). Non-specific binding of [^3H]-DHA was determined by adding 2 μM of alprenolol (Sigma) in the same binding reaction. The binding affinity of [^3H]-DHA was plotted on a column graph, and each experiment was performed in triplicate.

[3] = Hydrodynamic radius and size distribution of micelles by dynamic light scattering (DLS); type: physicochemical; conditions: detergent 1.0% by weight
Method: A method of measuring the radius of the micelles is not particularly limited, but the radius of the micelles may be measured using methods well known in the related art. For example, the radius of the micelles may be measured through a dynamic light scattering (DLS) experiment.
as §1

[4] = target: T2, melibiose permease (MelB) (Salmonella typhimurium, UniProt P30878); experiment: MelB extraction and thermostability, SDS-PAGE and Western Blotting of the dissolved protein; conditions: 90 minutes, detergent 1.5% by weight
T2 construct: made in house; host or cells: E. coli DW2
Method: The MelB protein was extracted from a membrane using BTM-C11s or DDM, and the amount and structure of the extracted protein were analyzed through SDS-PAGE and Western Blotting. A concentration of the amphiphilic compound used was 1.5% by weight, and the protein was extracted at four temperatures (0, 45, 55, and 65° C.), and incubated at the same temperature for 90 minutes. Thereafter, an amount of the protein remaining dissolved in an aqueous solution was measured to evaluate two types of performance: protein extraction efficiency and stabilization ability of the compound. The amount of the protein extracted and stabilized with each of the amphiphilic molecules is expressed as a relative value (%) of the entire amount of proteins contained in a membrane sample which is not treated with the amphiphilic molecules.
Specifically, Salmonella typhimurium melibiose permease (MelBSt) having a 10-His tag at the C-terminus thereof was expressed in E. coli DW2 cells (AmelB and AlacZY) using a plasmid pK95ΔAHB/WT MelBSt/CH10. Cell growth and membrane preparation were performed according to the method disclosed in the article by A. S. Ethayathulla et al. (Nat. Commun. 2014, 5, 3009). A protein assay was performed using a Micro BCA kit (Thermo Scientific, Rockford, Ill.). An effect of the isomers (A-BTM-C11, B-BTM-C11, and M-BTM-C11) of the BTM-C11s or DDM on the MelBSt stability was evaluated using the protocol disclosed in P. S. Chae et al. (Nat. Methods 2010, 7, 1003-1008). A membrane sample (having a final protein concentration of 10 mg/mL) containing MelBSt was incubated at four temperatures (0, 45, 55, and 65° C.) for 90 minutes in a solubilizing buffer (20 mM sodium phosphate, pH 7.5, 200 mM NaCl, 10% glycerol, and 20 mM melibiose) containing 1.5% (w/v) DDM or the BTM-C11 isomers. To remove insoluble matter, the sample was ultracentrifuged at 355,590 g at 4° C. for 45 minutes using a Beckman Optima™ MAX ultracentrifuge equipped with a TLA-100 rotor. The dissolved fraction was separated by 16% SDS-PAGE, and then immunoblotted with a Penta-His-HRP antibody (Qiagen, Germantown, Md.). The membrane fraction containing 20 μg of untreated proteins was used to represent the entire MelB, and the treated samples were loaded in each well at the same volume. MelBSt was measured by an ImageQuant LAS 4000 Biomolecular imager (GE Health Care Life Sciences) using a SuperSignal West Pico chemiluminescent substrate.

T2 sequence (P30878 whole entry): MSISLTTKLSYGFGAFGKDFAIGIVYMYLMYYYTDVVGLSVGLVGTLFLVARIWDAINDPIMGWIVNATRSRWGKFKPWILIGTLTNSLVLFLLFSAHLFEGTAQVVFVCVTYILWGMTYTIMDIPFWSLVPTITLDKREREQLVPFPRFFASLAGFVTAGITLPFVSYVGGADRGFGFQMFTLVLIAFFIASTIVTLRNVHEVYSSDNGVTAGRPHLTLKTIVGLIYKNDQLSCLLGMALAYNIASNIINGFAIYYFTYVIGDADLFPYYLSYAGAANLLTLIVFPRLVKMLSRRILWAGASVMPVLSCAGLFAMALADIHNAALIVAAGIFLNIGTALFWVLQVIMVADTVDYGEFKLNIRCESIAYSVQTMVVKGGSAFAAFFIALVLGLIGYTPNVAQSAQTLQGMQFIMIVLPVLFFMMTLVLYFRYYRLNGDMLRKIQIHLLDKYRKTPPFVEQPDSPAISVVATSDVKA
T1 sequence (P07550 whole entry): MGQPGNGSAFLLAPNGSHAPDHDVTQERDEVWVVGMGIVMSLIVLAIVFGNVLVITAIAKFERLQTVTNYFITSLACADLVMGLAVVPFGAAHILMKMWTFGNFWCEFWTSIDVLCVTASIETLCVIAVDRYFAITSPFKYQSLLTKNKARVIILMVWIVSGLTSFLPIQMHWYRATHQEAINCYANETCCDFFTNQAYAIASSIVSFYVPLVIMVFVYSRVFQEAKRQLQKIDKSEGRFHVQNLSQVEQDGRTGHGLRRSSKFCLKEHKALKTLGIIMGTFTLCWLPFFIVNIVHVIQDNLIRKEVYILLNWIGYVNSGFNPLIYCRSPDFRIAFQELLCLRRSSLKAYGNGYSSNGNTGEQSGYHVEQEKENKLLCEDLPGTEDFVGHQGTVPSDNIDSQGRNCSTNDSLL

## CCCCCCCCCCCCO[C@@H]1O[C@H](CO)[C@@H](O[C@H]2O[C@H](CO)[C@@H](O)[C@H](O)[C@H]2O)[C@H](O)[C@H]1O [DDM, n-dodecyl-β-D-maltopyranoside, reference compound]
[1]
  CMC: ~0.17 mM
  CMC (% by weight): ~0.0087 % by weight
[2]; CMC+0.2% by weight
  initial ligand-binding characteristics of β2AR ([3H]-DHA): high ability to bind to a ligand
[2]; after 3 days of incubation at room temperature
  remaining ligand-binding ability of β2AR, % of initial: 10%
[3]
  Rh (nm), hydrodynamic radius of micelles: 3.4 ± 0.03 nm
[4]; 0° C.
  MelB protein extraction efficiency / dissolved MelB: high MelB protein extraction efficiency
[4]; 55° C.
  amount of MelB protein remaining dissolved in aqueous solution: approximately 15%
[4]; 65° C.
  amount of dissolved MelB: very small amount of the protein remained
